System: p53alpha
Test: Western blot of p53 isoforms in HCT 116 cells after doxorubicin with or without pulsed technology
Type: cell-based, Human
Settings: 0.25 μM for 1 hour
Method: Human Colon Tumour (HCT) 116 cells (adherent cells) (ATCC, USA-ATCC® CCL-247™) were seeded at a density of 3×10^5 cells per well in two CELLSTAR®6-well plates (9.6 cm^2) in a final volume of 5 mL Dulbeccos Modified Eagle Medium (DMEM) (Thermo Fisher, USA)+10% Fetal Bovine Serum (FBS) (Hyclone, USA) 24 hours before treatment.
The naked agent used was Doxorubicin (0.25 μM) (Sigma Aldrich) in absolute ethanol and was given to the cells for a 1 hour treatment period and incubated at 37° C., at 5% CO^2.
After treatment the media was removed and fresh media was added to the cells. One of the plates was incubated directly at 37° C., at 5% CO^2 and the second plate was placed in a different incubator and pulsed using the pulsed technology of the present invention at 37° C., at 5% CO^2.
Protein extracts were collected at 3 hours, 6 hours, 9 hours, 16 hours or 24 hours of treatment for analysis by SDS-page.
1. For protein extraction the cells were washed twice with ice-cold PBS and then lysed in NP-40 extraction buffer (50 mM Tris ph 7.5; 10% glycerol; 0.1% “NP-40 Alternative” (Merck Millipore, USA); 100 mM NaCl; 0.2 mM EDTA) supplemented with 1× Complete™ Protease Inhibitor Cocktail (Roche, Switzerland). Extracts were sonicated (20 seconds, 20% amplitude) and protein concentration was determined using BCA™ Protein Assay Kit (ThermoFisher Scientific USA) according to the manufacturers recommendations.
1. Protein extracts (15/20 μg depending on the experiment) were supplemented with 0.1M dithiothreitol (DTT) and 1×LDS buffer (Invitrogen, USA) and were heated at 95° C. for 10 min before loading on NuPAGE 10% Bis-Tris polyacrylamide gels (Invitrogen, USA).
2. Protein samples were separated by electrophoresis (100V) using 1×MOPS Running Buffer. Transfer of proteins was performed at 12V overnight onto a nitrocellulose membrane (Protran 0.1 μm from GE Healthcare, USA) in 1× Transfer Buffer supplemented with 20% methanol. 1× Transfer Buffer is prepared from 10× Wet blot solution containing 144 g of glycine and 30 g Tris-Base in a final volume of 1 L milli-Q water.
3. Membranes were blocked for 30 min in 5% BSA diluted in PBS—0.1% Tween20 before being incubated overnight with a primary antibody (Mouse monoclonal antibody D01). After a wash of 15 min. in PBS-Tween20, membranes were incubated for 1 h with a corresponding secondary antibody (HRP conjugated Donkey anti Mouse). […]
At the end of the incubation membranes were washed twice with PBS-Tween20 for 15 min followed by a final 10 min. wash with PBS. The chemiluminescence signal was detected on Hyperfilm™ ECL (Cytiva, USA) using the Amersham ECL Western Blotting Detection System (Cytiva, USA).

COc1cccc2c1C(=O)c1c(O)c3c(c(O)c1C2=O)C[C@@](O)(C(=O)CO)C[C@@H]3O[C@H]1C[C@H](N)[C@H](O)[C@H](C)O1 [doxorubicin, Doxorubicin]
H2AX expression (ionising radiation marker, Western Blot) (pulsed technology vs control arms, FIG. 13): no observed change | p53alpha expression (Western Blot) (pulsed technology vs control, after 16 hours, FIG. 14): significant overproduction | p53alpha expression (Western Blot) (then pulsed technology vs control, 3 to 24 hours, FIG. 13): upregulated | expression of other p53 isoforms d133p53alpha, d133p53beta and d160p53beta (Western Blot) (then pulsed technology vs control, FIG. 13): more upregulated
